# Reference: patent EP0831877B1, “METABOLIC EFFECTS OF CERTAIN GLUTATHIONE ANALOGS” (TELIK, INC., priority 1995, dated 1996)
# Like-named read-outs stand apart in the source and are kept apart here. Marks after values point to notes of the source that are not given here.
# Experiments:
# GST M1a-1a = target: T1, GST M1a-1a (Homo sapiens, UniProt P09488); experiment: inhibition of GST isoenzyme M1a-1a (Ki); assay type: biochemical
# T1 sequence (P09488 1-218): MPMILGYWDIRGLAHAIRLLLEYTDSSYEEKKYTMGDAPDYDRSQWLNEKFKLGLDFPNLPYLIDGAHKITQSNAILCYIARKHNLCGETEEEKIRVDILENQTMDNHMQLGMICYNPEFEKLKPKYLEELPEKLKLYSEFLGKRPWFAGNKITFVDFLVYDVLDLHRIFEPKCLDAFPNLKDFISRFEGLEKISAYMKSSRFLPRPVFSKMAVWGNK
# [1] = system: HT-29 (human colon adenocarcinoma) cells; experiment: modified clonogenic assay, potentiation of chlorambucil cytotoxicity; assay type: cell-based; conditions: for DMF of DEE: diethyl ester
# Procedure: HT-29 (human colon adenocarcinoma) cells were obtained from Dr. Roberto Ceriani (Cancer Research Fund of Contra Costa County, Walnut Creek, CA) and were used in log phase of growth unless otherwise specified. Chlorambucil (CMB) was obtained from Sigma (St. Louis, MO) and was dissolved in 100% ethanol. All GST inhibitors were dissolved in ethanol, DMSO, or water just prior to use. The same amount of solvent added to culture medium served as the vehicle control.
# In a modified clonogenic assay for cytotoxicity, cells were suspended at 2 x 10^5 cells/ml in serum-free medium in the presence of vehicle or inhibitor. […] Cells were incubated for 2 hours, then varying doses of CMB were added. At the end of a second 2-hour incubation, cells were diluted to 7.5-10 x 10^3/ml in serum-containing medium and plated in quadruplicate at 200 µl/well in Microtest III microtiter plates.
# Plates were incubated for 6 days and assayed by a modified methylene blue method. Briefly, cells were fixed with 1.25% glutaraldehyde in PBS then stained with 0.05% methylene blue in distilled water. Plates were washed several times in distilled water to remove unretained dye and retained dye was resolubilized in 0.03 N HCl. Plates were read at 650 nm in a Molecular Devices Vmax plate reader (Molecular Devices, Redwood City, CA). […] A dose modification factor (DMF), a measure of potentiation of cytotoxicity, was calculated for each inhibitor by dividing the IC50 value of CMB without inhibitor treatment by the IC50 value for CMB with inhibitor treatment.
# Human GST P1-1 = Human GST P1-1 (Homo sapiens, UniProt P09211); experiment: inhibition of GST isoenzyme P1-1 (Ki); assay type: biochemical; conditions: for Rank order: rank of Ki for Human GST P1-1
# GST M2-2 = target: T2, GST M2-2 (Homo sapiens, UniProt P28161); experiment: inhibition of GST isoenzyme M2-2 (Ki); assay type: biochemical; conditions: determined on unesterified form
# T2 sequence (P28161 1-218): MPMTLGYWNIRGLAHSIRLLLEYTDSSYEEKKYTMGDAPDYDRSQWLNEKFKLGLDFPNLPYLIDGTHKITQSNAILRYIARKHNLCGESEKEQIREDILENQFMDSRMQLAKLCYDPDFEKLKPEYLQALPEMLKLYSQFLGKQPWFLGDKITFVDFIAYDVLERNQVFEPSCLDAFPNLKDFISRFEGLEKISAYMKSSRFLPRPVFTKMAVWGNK
# bone marrow GM-CFU [2] = experiment: stimulation of bone marrow GM-CFU after administration to mice; assay type: in vivo, B6D2F1 mice; conditions: bone marrow harvested 24 hours after administering
# Procedure: In an illustrative assay three B6D2F1 mice were treated with various doses of benzyl PG intraperitoneally.
# Mice in the control group were injected with water or saline. Bone marrow cells were harvested 24 hours after drug treatment and added to alpha minimum essential medium (alpha MEM) supplemented with methylcellulose (0.8% w/v), fetal bovine serum (20% v/v), deionized BSA (1% w/v), Pokeweed mitogen-stimulated spleen-cell conditioned medium (PWM-SCCM)^1 (10% v/v) and gentamycin (50 Tg/ml). One ml aliquots were plated (four replicate plates) and incubated for seven days at 37 °C. […] Spleens were removed aseptically from four male B6D2F1 mice enforced through a 200 Tm wire mesh screen to obtain a single cell suspension. Ten ml of the suspension (2-4 X 10^7 cell/ml was added to 90 ml alpha-MEM supplemented with 1% deionized BSA, 50 Tg/ml gentamicin, 0.3% freshly reconstituted pokeweed antigen, 10 µM 2-mercaptoethanol. The mixture was incubated for 5 days at […] in a 5% CO2 atmosphere and the result-ing conditioned medium was centrifuged at 800g for ten minutes and filtered through a 0.22 Tm filter. Aliquots were kept frozen at […] until use.
# Bone marrow was harvested 24 hours after administering the compounds and GM-CFU levels measured as described above.
# GST A1-1 = target: T3, GST A1-1 (Homo sapiens, UniProt P08263); experiment: inhibition of GST isoenzyme A1-1 (Ki); assay type: biochemical
# T3 sequence (P08263 1-222): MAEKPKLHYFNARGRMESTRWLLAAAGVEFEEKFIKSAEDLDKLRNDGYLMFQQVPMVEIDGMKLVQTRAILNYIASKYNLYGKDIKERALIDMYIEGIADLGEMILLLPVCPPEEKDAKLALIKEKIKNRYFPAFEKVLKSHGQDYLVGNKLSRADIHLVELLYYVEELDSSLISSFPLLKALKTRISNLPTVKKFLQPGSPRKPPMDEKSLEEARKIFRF
# HT-29 cells = experiment: Cytosensor Microphysiometer acidification rates; assay type: cell-based, human; conditions: 4 hours pretreatment, TER199 20 µM, ethacrynic acid 50 µM
# Procedure: The metabolic effects related to toxicity of the compounds of the invention on HT-29 cells, were tested using a Cytosensor Microphysiometer made by Molecular Devices, Inc., Menlo Park, CA and described in McConnell, H.M. et al. Science (1992) 257:1906-1912 and by Wada, H.G. et al. AATEX (1992) 1:154-164. Changes in pH of the culture medium are measured as a function of cellular metabolism. Acidification rates of the small volume of liquid flowing over the cells correlate with the number of live cells in the reaction chamber; a reduction of acidification rate reflects reduced numbers of surviving cells. […] The medium was then replaced with serum-free low buffer capacity medium and Microphysiometer analysis was initiated.
# HT4-1 tumors = experiment: potentiation of melphalan toxicity in vivo, implanted HT4-1 tumors; set-up: species or system Male scid mice
# Procedure: Male scid mice were subcutaneously implanted with HT4-1 tumors from donor mice. HT4-1 is a subclone of HT-29, a human colon cancer. When tumors reached approximately 100 mm^3, the mice were randomized into six treatment groups and treated for seven days as follows: • 1. 5 mg/kg melphalan; • 2. 10 mg/kg ethacrynic acid; • 3. […] 5 mg/kg melphalan + 10 mg/kg ethacrynic acid; • 5.
# The mice were monitored for weight changes and tumor volumes were determined by measurement with calipers. The tumor growth was monitored until the average tumor size reached 1500 mm^3 for all groups except melphalan with ethacrynic acid.
# The results were computed in terms of the tumor volume in the drug treated mice as a percentage of control tumor volume (i.e., in the group administered vehicle alone). In group 1, administered melphalan alone, the tumors were approximately 75% of the volume of controls. […] For group 4 administered a combination of melphalan and ethacrynic acid, the volumes were approximately 35% of control. […] (The volume measurements were taken at the time control tumors reached 1500 mm^3.)
# [3] = system: SKOV-3 an ovarian carcinoma; experiment: standard clonogenic assay, potentiation of drug toxicity, SKOV-3; assay type: cell-based
# Procedure: (§1) ; SKOV-3 an ovarian carcinoma, and VLB, a vinblastine-resistant variant of SKOV-3. Four chemotherapeutic drugs, chlorambucil, adriamycin, mitomycin C and doxorubicin were used as the toxic agents. In these assays, the cells were seeded at 300 cells/well in 2 ml of medium in 6-well plates in the presence of the compounds used in the invention as the diethyl esters. […]. After incubation for 1-2 hours to permit cells to attach, varying doses of the chemotherapeutic agents were added. At least three replicate wells were plated for each test condition and the plates were incubated for two weeks. Colonies were fixed in 95% ethanol and stained with crystal violet for colony counting. IC50 values were determined for the chemotherapeutic agent in the presence or absence of the compound used in the invention and dose modification factors were calculated by dividing the IC50 value of drug without the compound by the IC50 value of the drug with the compound.
# [4] = system: HT4-1, a subclone of HT-29; experiment: standard clonogenic assay, potentiation of drug toxicity, HT4-1; conditions: HT4-1; TER199 at 25 µM, TER183 dose not given
# [5] = system: VLB, a vinblastine-resistant variant of SKOV-3; experiment: standard clonogenic assay, potentiation of drug toxicity, VLB; assay type: cell-based
# Procedure: as §1
# bone marrow GM-CFU [6] = experiment: 5-fluorouracil-induced GM-CFU suppression in mice
# Procedure: The control group was not treated with either drug. Bone marrows were harvested and GM-CFUs were determined 24 hours after the final injection.
# Values are the mean ± SE of three mice per point.
# [7] = in vitro half-life / metabolism in mouse blood; assay type: in vitro ADME
# [8] = in vitro half-life in human blood; assay type: in vitro ADME
# [9] = determined on unesterified form
# [10] = chlorambucil, HT-29, dose tested 12.5 µM, mean ±S.D. of 2-3 experiments
# [11] = chlorambucil, mean ±S.D. of 2-3 experiments
# Sequence of Human GST P1-1 (P09211 2-210 limits assumed): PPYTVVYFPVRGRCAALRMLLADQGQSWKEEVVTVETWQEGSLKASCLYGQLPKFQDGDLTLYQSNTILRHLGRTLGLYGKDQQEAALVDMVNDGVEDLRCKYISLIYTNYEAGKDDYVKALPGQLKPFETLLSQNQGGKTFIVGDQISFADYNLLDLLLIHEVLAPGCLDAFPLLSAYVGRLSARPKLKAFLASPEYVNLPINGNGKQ
molecule,measurement,setting,value
γE-C(naphthyl)-G [TER206],Ki,GST M1a-1a; [9],0.01 µM
same,"DMF (dose modification factor), Diethyl ester",[1]; [10],1.21±0.01
same,DMF of DEE,[1]; [11],1.213
same,Ki,Human GST P1-1; [9],1.2 µM
same,Ki,GST M2-2,1.5 µM
same,"effect on GM-CFU, analogs of TER199 (Figure 8)",bone marrow GM-CFU [2],inactive
same,Ki,GST A1-1; [9],4.2 µM
"CCCCCCCCSC[C@H](NC(=O)CC[C@H](N)C(=O)O)C(=O)NCC(=O)O [TER143, γE-C(octyl)-G]",Rank order,Human GST P1-1,4
"C=C(CC)C(=O)c1ccc(OCC(=O)O)c(Cl)c1Cl [ethacrynic acid, reference compound]","effect on acidification rates, compound alone (Figure 2)",HT-29 cells; no chlorambucil,Neither γE-C(Bz)-ϕG diethylester (TER199) nor ethacrynic acid alone had any appreciable effect
same,effect of pretreatment on acidification rates with chlorambucil (Figure 2),HT-29 cells; then 100 µM chlorambucil,potentiated the effect of chlorambucil
same,time until average tumor size reached 1500 mm^3,"HT4-1 tumors; 5 mg/kg melphalan + 10 mg/kg ethacrynic acid, volume not reached",> 72 days
same,tumor volume as a percentage of control tumor volume,"HT4-1 tumors; group 4: 5 mg/kg melphalan + 10 mg/kg ethacrynic acid, seven days, when control tumors reached 1500 mm^3",approximately 35%
"CCCCCCCCSC[C@H](NC(=O)CC[C@H](N)C(=O)OCC)C(=O)NCC(=O)OCC [TER183, γE-C(octyl)-G diethyl ester]","DMF (dose modification factor), Diethyl ester","[1]; chlorambucil, HT-29, dose tested 5 µM, mean ±S.D. of 2-3 experiments",0.86±0.02
same,DMF of DEE,[1]; [11],0.864
same,DMF for Adriamycin,[3]; analog @5 uM,1.24 (@5 uM)^c
same,DMF for Chlorambucil,[3]; test dose not given,1.03
same,DMF for Adriamycin,[4],1.13
same,DMF for Chlorambucil,[4],1.74
same,DMF for Mitomycin C,[4],1.56
same,DMF for Adriamycin,"[5]; TER199 at 25 µM, TER183 dose not given",1.06
same,DMF for Mitomycin C,[5]; test dose not given,1.63
γE-C(naphthyl)-G [TER211],Rank order,Human GST P1-1,3
γE-C(Bz) (S+)-fA [TER317],Ki,GST M1a-1a; [9],> 1000 µM
same,Ki,Human GST P1-1; [9],> 1000 µM
same,Ki,GST M2-2,> 1000 µM
same,"effect on GM-CFU, analogs of TER199 (Figure 8)",bone marrow GM-CFU [2],inactive
same,Ki,GST A1-1; [9],> 1000 µM
"CCCCCCSC[C@H](NC(=O)CC[C@H](N)C(=O)O)C(=O)N[C@@H](C(=O)O)c1ccccc1 [TER102, γE-C(hexyl)-ϕG]","DMF (dose modification factor), Parent Compound","[1]; chlorambucil, HT-29, dose tested 100 µM, mean ±S.D. of 2-3 experiments",1.1±0.02
same,specificity for GST P1-1,"Human GST P1-1; among TER117, TER102, TER211, TER143",reasonably specific
same,Rank order,Human GST P1-1,2
"O=c1[nH]cc(F)c(=O)[nH]1 [5-FU, 5-fluorouracil, reference compound]",GM-CFU,bone marrow GM-CFU [6]; 75 mg/kg 5-FU IP alone,15 % of control
same,GM-CFU,"bone marrow GM-CFU [6]; 5-FU 75 mg/kg i.p. alone, harvest 48 hours",47 % of control
same,GM-CFU,"bone marrow GM-CFU [6]; 5-FU 150 mg/kg i.p. alone, harvest 48 hours",8 % of control
same,GM-CFU by day 4 after 5-FU administration (Figure 9b),bone marrow GM-CFU [6]; 5-FU only,approximately equal to control
"CCCCCCCCSC[C@H](NC(=O)CC[C@H](N)C(=O)OCC)C(=O)NCC(=O)OCC [TER143, γE-C(octyl)-G]",Ki,GST M1a-1a,1.2 µM
same,Ki,Human GST P1-1,1.9 µM
same,Ki,GST A1-1,0.27 µM
"CCNC(=O)C(N)CCC(=O)NC(CSCc1ccccc1)C(=O)N[C@@H](C(=O)NCC)c1ccccc1 (stereo partly drawn) [TER278, γE ethyl amide-C(Bz)-R-(-)-ϕG ethyl amide]",DMF for chlorambucil toxicity,"[1]; HT-29, 200 µM, single experiment",1.0
same,ability to potentiate chlorambucil compared with TER199,[1]; test system not stated,less able to potentiate chlorambucil
same,toxicity compared with TER199,[1]; test system not stated,less toxic
same,half-life compared with TER199,[7],longer half-lives than TER199
same,"half-life, comparison of the three compounds",[8],approximately the same
"CCCCCCSC[C@H](NC(=O)CC[C@H](N)C(=O)OCC)C(=O)NC(C(=O)OCC)c1ccccc1 (some centres unmarked) [γE-C(Hx)-ϕG diethyl ester, γE-C(Hx)-ϕG]","DMF (dose modification factor), Diethyl ester",[1]; [10],1.27±0.02
same,DMF of DEE,[1]; [11],1.272
